Results from patent US12133936B2, “Surgical system and methods of use” (priority 2021, dated 2024).

Experiments:
[1] = test system: myofibroblast formation; details: Ajmal et al. (2003); cited from earlier work
[2] = test system: fibrinolysis; assay: prevention / reversal of fibrinolysis; details: one tenth of the doses used in the non-GLP acute porcine study
Text: (§1) However, in some embodiments, however, higher doses of tranexamic acid are used for topical applications to account for tranexamic acid being widely distributed throughout the extracellular and intracellular compartments when given preoperatively.

[3] = in vivo
Text: as §1

Structure (SMILES) | myofibroblast formation [1] | reversing fibrinolysis [2] | time to reach plasma concentrations [3]
O=S(=O)([O-])CCS.[Na+] [MESNA, sodium 2-mercaptoethane sulfonate] | diminish myofibroblast formation | – | –
NC[C@H]1CC[C@H](C(=O)O)CC1 [tranexamic acid, trans-4-(aminomethyl)cyclohexanecarboxylic acid] | – | effective in reversing fibrinolysis | 5 to 15 min
